From ChEMBL document CHEMBL1201862, “PubChem BioAssay data set” (2004)
Activity calls are given as the source filed them.

What was measured:
[1] = target: T1, Endoribonuclease toxin MazF (Escherichia coli K-12, UniProt P0AE70); experiment: fluorescent RNA oligo signal without MazF, dose response, counter-screen for MazEF activator project, biochemical, fluorescence, single-stranded RNase substrate (AID 588502); assay type: functional
T1 sequence (P0AE70 whole entry): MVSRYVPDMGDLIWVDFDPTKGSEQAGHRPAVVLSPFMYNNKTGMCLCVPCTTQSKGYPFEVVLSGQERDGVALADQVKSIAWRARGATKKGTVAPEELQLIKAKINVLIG

[2] = target: T1, Endoribonuclease toxin MazF; experiment: MazF toxin RNase activators, dose response, biochemical, fluorescence, single-stranded RNA substrate, uHTS hits (AID 588481); assay type: functional
Insulin-degrading enzyme [3] = target: T2, Insulin-degrading enzyme (Homo sapiens, UniProt P14735); experiment: activators of endogenous IDE in HEK cells, dose response, cell-based, fluorescence polarization (AID 588439); assay type: functional
T2 sequence (P14735 whole entry): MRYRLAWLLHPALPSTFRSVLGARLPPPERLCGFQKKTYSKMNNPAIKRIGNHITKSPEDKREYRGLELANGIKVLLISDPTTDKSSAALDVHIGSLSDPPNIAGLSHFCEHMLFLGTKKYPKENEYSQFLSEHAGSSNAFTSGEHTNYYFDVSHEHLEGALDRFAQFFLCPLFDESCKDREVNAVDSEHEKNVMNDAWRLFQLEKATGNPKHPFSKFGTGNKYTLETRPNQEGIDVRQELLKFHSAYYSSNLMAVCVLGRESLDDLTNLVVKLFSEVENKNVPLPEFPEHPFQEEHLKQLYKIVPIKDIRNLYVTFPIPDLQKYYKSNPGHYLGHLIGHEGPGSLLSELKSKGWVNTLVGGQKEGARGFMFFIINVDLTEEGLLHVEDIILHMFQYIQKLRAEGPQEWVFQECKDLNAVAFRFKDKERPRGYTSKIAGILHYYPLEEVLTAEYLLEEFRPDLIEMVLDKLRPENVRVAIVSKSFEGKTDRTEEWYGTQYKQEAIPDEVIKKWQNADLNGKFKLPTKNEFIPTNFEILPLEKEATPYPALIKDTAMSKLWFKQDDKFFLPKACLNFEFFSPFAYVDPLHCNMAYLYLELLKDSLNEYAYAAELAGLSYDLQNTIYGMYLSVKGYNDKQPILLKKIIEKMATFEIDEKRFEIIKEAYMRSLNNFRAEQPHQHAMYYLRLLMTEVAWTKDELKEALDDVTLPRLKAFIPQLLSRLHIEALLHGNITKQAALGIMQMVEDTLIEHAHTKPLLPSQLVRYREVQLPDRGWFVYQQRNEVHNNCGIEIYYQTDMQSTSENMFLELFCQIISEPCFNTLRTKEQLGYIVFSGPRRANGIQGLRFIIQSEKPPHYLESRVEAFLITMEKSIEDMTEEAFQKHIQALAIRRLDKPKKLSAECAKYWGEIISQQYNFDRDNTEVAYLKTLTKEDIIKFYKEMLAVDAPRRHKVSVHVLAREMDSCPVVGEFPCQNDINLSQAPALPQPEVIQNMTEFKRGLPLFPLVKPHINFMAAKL

HEK293 [4] = experiment: optical interference in Abeta FP readout, dose response, artefact control for IDE activator project, biochemical, fluorescence polarization (AID 588442); assay type: functional, cell-based; settings: Homo sapiens
HEK293 [5] = experiment: HEK cell cytotoxicity by LDH release, dose response, cytotoxicity control for IDE activator project, fluorescence, HEK cells (AID 588440); assay type: functional, cell-based; settings: Homo sapiens;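 also: cytotoxicity by LDH release measuring loss of membrane integrity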
Insulin-degrading enzyme [6] = target: T2, Insulin-degrading enzyme; experiment: activators of recombinant IDE enzyme, dose response, counter-screen for IDE activator project, biochemical, fluorescence polarization (AID 588681)
[7] = target: T3, Sentrin-specific protease 7 (Homo sapiens, UniProt Q9BQF6); assay type: functional;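 also: Luminescence-based dose-response confirmation of ultra-high-throughput screening hits, measuring inhibition of SENP7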
T3 sequence (Q9BQF6 whole entry): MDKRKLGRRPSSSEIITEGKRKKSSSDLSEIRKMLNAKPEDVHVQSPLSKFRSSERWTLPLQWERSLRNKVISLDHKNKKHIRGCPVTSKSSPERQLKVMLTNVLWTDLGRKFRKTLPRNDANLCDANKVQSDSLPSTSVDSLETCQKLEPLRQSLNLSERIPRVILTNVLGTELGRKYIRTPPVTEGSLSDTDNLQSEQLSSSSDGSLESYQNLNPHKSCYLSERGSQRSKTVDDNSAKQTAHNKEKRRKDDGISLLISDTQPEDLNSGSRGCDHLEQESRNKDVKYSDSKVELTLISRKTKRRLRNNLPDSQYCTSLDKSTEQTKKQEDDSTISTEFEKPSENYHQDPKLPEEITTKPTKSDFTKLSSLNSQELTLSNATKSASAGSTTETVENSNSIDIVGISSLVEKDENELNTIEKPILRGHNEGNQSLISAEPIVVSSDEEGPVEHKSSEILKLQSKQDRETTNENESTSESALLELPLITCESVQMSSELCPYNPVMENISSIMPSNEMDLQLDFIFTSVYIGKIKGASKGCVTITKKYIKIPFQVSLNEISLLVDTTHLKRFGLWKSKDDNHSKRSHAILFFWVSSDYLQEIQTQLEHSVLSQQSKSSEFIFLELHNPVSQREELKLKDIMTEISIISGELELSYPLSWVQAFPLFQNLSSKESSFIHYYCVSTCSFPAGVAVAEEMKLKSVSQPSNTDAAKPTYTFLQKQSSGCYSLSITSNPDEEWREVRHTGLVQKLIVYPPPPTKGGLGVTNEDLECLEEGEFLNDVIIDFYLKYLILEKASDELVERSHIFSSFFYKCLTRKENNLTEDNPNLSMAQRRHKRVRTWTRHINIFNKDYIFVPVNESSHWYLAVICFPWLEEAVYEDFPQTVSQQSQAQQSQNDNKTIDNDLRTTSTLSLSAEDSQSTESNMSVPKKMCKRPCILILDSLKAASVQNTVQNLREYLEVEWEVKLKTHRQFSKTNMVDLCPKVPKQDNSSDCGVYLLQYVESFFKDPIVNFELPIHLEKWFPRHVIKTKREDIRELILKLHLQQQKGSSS

[8] = target: T4, Oxysterols receptor LXR-beta (Homo sapiens, UniProt P55055); assay type: functional, cell-based;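 also: agonist activity at LXR measured by a cell-based luminescence readout across a dose range, run as a counterscreen for daf-12 agonists; HEK293 cells with Gal4-LXR fusion and GAL4-driven luciferase reporter; potency for activation of Gal4-LXR reporter so compounds are agonists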
T4 sequence (P55055 whole entry): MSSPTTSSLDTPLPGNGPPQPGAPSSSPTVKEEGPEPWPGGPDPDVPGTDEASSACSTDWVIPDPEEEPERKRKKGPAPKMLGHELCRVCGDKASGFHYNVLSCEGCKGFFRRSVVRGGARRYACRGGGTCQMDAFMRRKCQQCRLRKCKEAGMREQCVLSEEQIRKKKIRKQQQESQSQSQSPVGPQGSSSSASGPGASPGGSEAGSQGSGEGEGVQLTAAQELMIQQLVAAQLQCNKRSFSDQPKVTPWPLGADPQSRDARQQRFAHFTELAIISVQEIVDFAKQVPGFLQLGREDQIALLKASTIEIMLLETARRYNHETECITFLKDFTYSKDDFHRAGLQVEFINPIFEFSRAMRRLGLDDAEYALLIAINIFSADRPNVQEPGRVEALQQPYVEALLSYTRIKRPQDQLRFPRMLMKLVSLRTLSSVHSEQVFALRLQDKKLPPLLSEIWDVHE

[9] = target: T5, Sentrin-specific protease 6 (Homo sapiens, UniProt Q9GZR1); assay type: functional;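 also: Luminescence-based dose-response confirmatory assay of SENP6 inhibition, following up an ultra-high-throughput screen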
T5 sequence (Q9GZR1 whole entry): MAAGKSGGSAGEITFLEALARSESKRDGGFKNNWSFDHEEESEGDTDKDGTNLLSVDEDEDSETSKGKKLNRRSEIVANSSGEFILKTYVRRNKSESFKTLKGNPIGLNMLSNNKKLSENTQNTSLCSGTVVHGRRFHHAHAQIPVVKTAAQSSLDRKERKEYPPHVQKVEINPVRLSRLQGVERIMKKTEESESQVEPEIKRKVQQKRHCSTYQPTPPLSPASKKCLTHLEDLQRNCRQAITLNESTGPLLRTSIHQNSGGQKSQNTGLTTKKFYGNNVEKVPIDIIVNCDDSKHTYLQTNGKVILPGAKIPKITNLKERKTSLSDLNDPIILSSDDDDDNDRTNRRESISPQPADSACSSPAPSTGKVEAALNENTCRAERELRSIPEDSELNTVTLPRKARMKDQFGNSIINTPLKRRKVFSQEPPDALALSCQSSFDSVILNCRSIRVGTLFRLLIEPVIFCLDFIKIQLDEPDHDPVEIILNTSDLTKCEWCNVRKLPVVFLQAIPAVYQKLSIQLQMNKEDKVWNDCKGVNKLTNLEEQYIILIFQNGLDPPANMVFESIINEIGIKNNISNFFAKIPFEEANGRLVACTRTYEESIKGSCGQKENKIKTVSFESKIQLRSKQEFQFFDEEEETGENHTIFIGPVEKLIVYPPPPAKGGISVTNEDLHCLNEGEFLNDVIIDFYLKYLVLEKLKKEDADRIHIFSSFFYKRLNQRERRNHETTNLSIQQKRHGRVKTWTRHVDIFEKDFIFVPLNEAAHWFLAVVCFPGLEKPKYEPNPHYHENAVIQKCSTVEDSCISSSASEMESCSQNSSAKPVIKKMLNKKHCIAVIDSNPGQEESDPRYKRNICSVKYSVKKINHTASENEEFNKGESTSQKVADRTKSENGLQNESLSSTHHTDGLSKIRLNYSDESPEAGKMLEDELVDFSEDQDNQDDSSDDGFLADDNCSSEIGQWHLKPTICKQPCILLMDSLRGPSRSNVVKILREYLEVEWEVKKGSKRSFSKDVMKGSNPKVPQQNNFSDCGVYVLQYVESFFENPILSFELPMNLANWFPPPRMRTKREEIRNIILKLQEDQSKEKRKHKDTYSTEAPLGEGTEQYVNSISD

Caspase-3 = target: T6, Caspase-3 (Homo sapiens, UniProt P42574); assay type: functional;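 also: Dose-response selectivity test against caspase-3 for candidate inhibitors of sentrin-specific proteases (SENPs)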
T6 sequence (P42574 whole entry): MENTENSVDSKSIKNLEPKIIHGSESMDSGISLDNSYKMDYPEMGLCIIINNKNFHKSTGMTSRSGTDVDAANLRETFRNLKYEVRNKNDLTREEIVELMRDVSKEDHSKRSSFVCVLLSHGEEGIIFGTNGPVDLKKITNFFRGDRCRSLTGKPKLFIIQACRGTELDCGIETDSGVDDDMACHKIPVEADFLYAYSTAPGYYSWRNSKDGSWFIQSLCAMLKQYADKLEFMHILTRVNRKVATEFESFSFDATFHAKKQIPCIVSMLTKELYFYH

[10] = target: T7, Sentrin-specific protease 8 (Homo sapiens, UniProt Q96LD8); assay type: functional;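 also: luminescence read-out of SENP8 inhibition, dose-response confirmation following an ultra-high-throughput screen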
T7 sequence (Q96LD8 whole entry): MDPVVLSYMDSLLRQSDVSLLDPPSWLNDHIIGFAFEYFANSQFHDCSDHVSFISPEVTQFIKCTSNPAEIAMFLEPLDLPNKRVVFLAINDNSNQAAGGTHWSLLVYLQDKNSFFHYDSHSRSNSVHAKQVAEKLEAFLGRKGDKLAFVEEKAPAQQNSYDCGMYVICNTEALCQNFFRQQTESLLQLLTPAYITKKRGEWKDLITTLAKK

COc1cccc(C2=CC(c3ccc(N(C)C)cc3)n3nnnc3N2)c1 (stereo not drawn)
EC50 [1]: > 99 µM (inactive) | EC50 [2]: > 99 µM (inactive)

CC(=O)Nc1ccc(S(=O)(=O)NCCc2ccccn2)cc1
EC50 (Insulin-degrading enzyme [3]): > 54.7 µM (inactive) | EC50 (HEK293 [4]): > 56 µM (inactive) | IC50 (HEK293 [5]): > 89.2 µM (inactive) | EC50 (Insulin-degrading enzyme [6]): > 54.7 µM (inactive)

CSC1=N/C(=C\c2ccc(C)s2)C(=O)S1
EC50 [1]: 72 µM (inactive) | EC50 [2]: 89.7 µM (inactive)

CCOc1ccc2nc(NC(=O)Nc3cccs3)sc2c1
IC50 [7]: 8.66 µM (active) | EC50 [8]: > 67.5 µM (inactive) | IC50 [9]: 19.2 µM (active) | IC50 (Caspase-3): 29.9 µM (active) | IC50 [10]: 24.1 µM (active)
